Common to all, as to assay type: cell-based
For experiment [1], the system named is Staphylococcus aureus ATCC 29213 (MSSA). The experiment can be described thus: Broth microdilution MIC, S. aureus ATCC 29213 (MSSA). To be noted: broth microdilution, 37° C., 20 hours, read-out: MIC S. aureus ATCC 29213 (MSSA). In a few lines: (§1)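 Two-fold dilutions from 64 to 0.0625 μg/ml final, 1% DMSO, were inoculated at ~5.0×10^5 cfu/ml in the strain's test medium and kept 20 h at 37 °C in ambient atmosphere. Colonies were grown on MHA, with S. pneumoniae on blood agar under 5% CO2.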

Experiment [2] relates to Escherichia coli ATCC 25922. The experiment can be described thus: Broth microdilution MIC, E. coli ATCC 25922 (MHIIB w & w/o 4 mM EDTA). The conditions noted are these: broth microdilution, 37° C., 20 hours; for MIC: Escherichia coli, ATCC25922, without EDTA, read-out: MIC E. coli ATCC 25922; for MIC E. coli ATCC 25922 + 4 mM EDTA: with 4 mM EDTA. The method, boiled down: as §1

Experiment [3] has as its system Enterococcus faecium ATCC 700221 (VRE). The experiment is described as follows: Broth microdilution MIC, E. faecium ATCC 700221 (VRE). Set-up: MIC E. faecium ATCC 700221 (VRE): unit: ug/mL. The conditions noted are these: broth microdilution, 37° C., 20 hours; for MIC: Enterococcus faecium, read-out: MIC E. faecium ATCC 700221 (VRE). In a few lines:
as §1

Experiment [4] has as its system Streptococcus pneumoniae ATCC 49619. The experiment is described as follows: Broth microdilution MIC, S. pneumoniae ATCC 49619. The conditions noted are these: ATCC49619, broth microdilution, 37° C., 20 hours, read-out: MIC S. pneumoniae ATCC 49619. The method, boiled down: as §1
The test system of experiment [5] is Staphylococcus aureus NRS384 (MRSA). The experiment is described as follows: Broth microdilution MIC, S. aureus NRS384 (MRSA). Set-up: MIC NRS 384 (MRSA): unit not given here. To be noted: broth microdilution, 37° C., 20 hours; for MIC: Staphylococcus aureus, read-out: MIC NRS 384 (MRSA). In a few lines: as §1
In experiment [6] the test system is Enterococcus faecalis ATCC 29212. The experiment can be described thus: Broth microdilution MIC, E. faecalis ATCC 29212. The conditions noted are these: ATCC29212, broth microdilution, 37° C., 20 hours, read-out: MIC E. faecalis ATCC 29212. In a few lines:
as §1

The test system of experiment [7] is Bacillus subtilis ATCC 6633. The experiment can be described thus: Broth microdilution MIC, B. subtilis ATCC 6633. To be noted: ATCC6633, broth microdilution, 37° C., 20 hours, read-out: MIC B. subtilis ATCC 6633. In a few lines: as §1

Converted amounts (≈) assume the structure as drawn.

For `Cl.O=c1[nH]c(NCc2ccc(Cl)c(Cl)c2)nc2cnn(CCc3cccnc3)c12` [Compound 110, 5-((3,4-Dichlorobenzyl)amino)-1-(2-(pyridin-3-yl)ethyl)-1H-pyrazolo[4,3-d]pyrimidin-7(6H)-one hydrochloride], the MIC was 4 µg/mL in experiment [1]; greater than 64 µg/mL in experiment [2]; 4 µg/mL in experiment [4]; 4 µg/mL in experiment [6]; 1 µg/mL in experiment [7]. The “MIC E. coli ATCC 25922 + 4 mM EDTA” value in experiment [2] is greater than 64 µg/mL. In addition, the “MIC E. faecium ATCC 700221 (VRE)” value in experiment [3] is listed as 2/2. The “MIC NRS 384 (MRSA)” value in experiment [5] is recorded as 2/2.

Take `Cn1ncc2nc(NCc3cccc(Cl)c3)[nH]c(=O)c21` [Compound 26, 5-((3-Chlorobenzyl)amino)-1-methyl-1H-pyrazolo[4,3-d]pyrimidin-7(6H)-one]: the MIC was 32 µg/mL (≈ 110 µM) in experiment [1]; greater than 64 µg/mL in experiment [2]; 32 µg/mL (≈ 110 µM) in experiment [3]; 16 µg/mL (≈ 55.2 µM) in experiment [4]; 32 µg/mL (≈ 110 µM) in experiment [5]; 64 µg/mL (≈ 221 µM) in experiment [6]. Also, in experiment [7], the minimal inhibitory concentration (MIC) was found to be 16 µg/mL (≈ 55.2 µM). Besides, the “MIC E. coli ATCC 25922 + 4 mM EDTA” value in experiment [2] is 64 µg/mL.

As to `O=c1[nH]c(NCc2ccc(Cl)c(Cl)c2)nc2cn(C3COC3)nc12` [Compound 143, 5-((3,4-Dichlorobenzyl)amino)-2-(oxetan-3-yl)-2H-pyrazolo[4,3-d]pyrimidin-7(6H)-one], the MIC is 64 µg/mL (≈ 175 µM) in experiment [1]; greater than 64 µg/mL in experiment [2]; 32 µg/mL (≈ 87.4 µM) in experiment [3]; 16 µg/mL (≈ 43.7 µM) in experiment [4]; 32 µg/mL (≈ 87.4 µM) in experiment [5]; 32 µg/mL (≈ 87.4 µM) in experiment [6]. In addition, in experiment [7], the MIC is 16 µg/mL (≈ 43.7 µM). Besides, in experiment [2], the “MIC E. coli ATCC 25922 + 4 mM EDTA” value is greater than 64 µg/mL.

As to `COCC(OCCn1ncc2nc(NCc3ccc(Cl)c(Cl)c3)[nH]c(=O)c21)c1cccnc1.Cl` (centres unmarked) [Compound 185, 5-((3,4-Dichlorobenzyl)amino)-1-(2-(2-methoxy-1-(pyridin-3-yl)ethoxy)ethyl)-1H-pyrazolo[4,3-d]pyrimidin-7(6H)-one hydrochloride], the MIC was 16 µg/mL in experiment [1]; greater than 64 µg/mL in experiment [2]; 16 µg/mL in experiment [3]; 8 µg/mL in experiment [4]; 16 µg/mL in experiment [5]; 16 µg/mL in experiment [6]. Moreover, in experiment [7], the MIC turned out to be 4 µg/mL. The “MIC E. coli ATCC 25922 + 4 mM EDTA” value in experiment [2] is greater than 64. ug/ml.

On to `Cn1ncc2nc(Nc3ccc4c(c3)COC4)[nH]c(=O)c21` [Compound 39, 5-((1,3-Dihydroisobenzofuran-5-yl)amino)-1-methyl-1H-pyrazolo[4,3-d]pyrimidin-7(6H)-one], for which the MIC in experiment [1], in experiment [2], in experiment [3], in experiment [4], in experiment [5] and in experiment [6] was greater than 64 µg/mL throughout. For the same compound, in experiment [7], the minimal inhibitory concentration (MIC) is greater than 64 µg/mL. Further, the “MIC E. coli ATCC 25922 + 4 mM EDTA” value in experiment [2] is greater than 64 µg/mL.

Take `Cn1ncc2nc(NCc3ccccc3)[nH]c(=O)c21` [Compound 3, 5-(Benzylamino)-1-methyl-1H-pyrazolo[4,3-d]pyrimidin-7(6H)-one]: the minimal inhibitory concentration (MIC) in experiment [1] is 32 µg/mL (≈ 125 µM); in experiment [2], greater than 64 µg/mL; in experiment [3], 32 µg/mL (≈ 125 µM); in experiment [4], 32 µg/mL (≈ 125 µM); in experiment [5] it was 64 µg/mL (≈ 251 µM); in experiment [6], 64 µg/mL (≈ 251 µM). Further, in experiment [7], the MIC turned out to be 32 µg/mL (≈ 125 µM). In addition, the “MIC E. coli ATCC 25922 + 4 mM EDTA” value in experiment [2] is greater than 64 µg/mL.

Regarding `Cl.O=c1[nH]c(NCc2ccc(Cl)c(Cl)c2)nc2cnn(Cc3cnccn3)c12` [Compound 112, 5-((3,4-Dichlorobenzyl)amino)-1-(pyrazin-2-ylmethyl)-1H-pyrazolo[4,3-d]pyrimidin-7(6H)-one hydrochloride], the minimum inhibitory concentration (MIC) in experiment [1] is 4 µg/mL; in experiment [2] it was greater than 64 µg/mL; in experiment [4], 4 µg/mL; in experiment [6], 8 µg/mL; in experiment [7], 1 µg/mL. Besides, the “MIC E. coli ATCC 25922 + 4 mM EDTA” value in experiment [2] was greater than 64 µg/mL. For the same compound, in experiment [3], the “MIC E. faecium ATCC 700221 (VRE)” value is 2/2. Moreover, the “MIC NRS 384 (MRSA)” value in experiment [5] is reported as 4/4.

Source of the values: patent US10723741B1, “DNA polymerase IIIC inhibitors and use thereof” (Acurx Pharmaceuticals, LLC, priority 2018, dated 2020).
